Measured values: patent US8163796B1, “Treatment of cancer by oxidation-reduction potentiation of cancerostatic dicarbonyls” (BioChemical Solutions, LLC, priority 2009, dated 2012)

Columns and labels:
[1] = oral administration; cited from earlier work
cancer cells = conditions: cited from earlier work
[2] = mice, single oral dose of 200 mg; cited from earlier work
[3] = system: murine B cell lymphoma cell line (A20;ATCC#TIB-208); assay: Tritiated thymidine incorporation (growth rate) of cultured lymphoma cells; format: cell-based; conditions: for Mean, cpm (tritiated thymidine count, growth rate): 12 hours, triplicates
Experimental: The effect of methylglyoxal concentration on the growth rate of cultured lymphoma cells is shown below. The cells used were murine B cell lymphoma cell line (A20;ATCC#TIB-208). Cells labeled A20 were untreated cells that were passed through their regular media. A20 Methylglyoxal Reversed cells had undergone 3 passages in media containing 1 mM methylglyoxal followed by 3 passages in regular media before use. A20 Methylglyoxal P6 cells had 6 passages in media containing 1 mM methylglyoxal before use. At the start of the experiment harvested cells were incubated with DNA precursor tritiated thymidine in media containing the various concentrations of methylglyoxal for 12 hours, then harvested and counted in a scintillation counter. The count data in cpm reflect the growth rate of the cells in the presence of the various methylglyoxal concentrations. Relevant data from this in vitro study are presented here.

[4] = (IV) administration at 3.0 grams/m^2; cited from earlier work

Q: Which results are given for `CC(=O)C=O` [Methylglyoxal, methylglyoxal]?
A: Oral uptake [1]: less than 5%; Levels causing protein synthesis inhibition, arrested cell growth and induced apoptosis (cancer cells; cancer cells, normal cells were not affected): 1 to 3 mM; Concentration required to achieve 95-100% cell death (cancer cells; cultured cancer cells or mice inoculated intraperitoneally with cancer cells): ~3 mM; Time of peak blood concentration [2]: 4 h; Survival of lymphoma cells on passage in methylglyoxal ([3]; 1 mM methylglyoxal in media, 3 or 6 passages): able to survive; Effect on growth rate ([3]; 1.2 mM methylglyoxal, all three A20 cell groups): severely slowed their growth rate; Growth rate relative to the controls ([3]; 2.5 mM and 5.0 mM methylglyoxal, all three A20 cell groups): less than 0.1 % of the controls; Mean, cpm (tritiated thymidine count, growth rate) ([3]; A20 1 mM Methylglyoxal P6 cells, 0.3 mM methylglyoxal): 36,001 cpm; Mean, cpm (tritiated thymidine count, growth rate) ([3]; A20 1 mM Methylglyoxal P6 cells, 0.6 mM methylglyoxal): 35,157 cpm; Mean, cpm (tritiated thymidine count, growth rate) ([3]; A20 1 mM Methylglyoxal P6 cells, 1.2 mM methylglyoxal): 1,470 cpm; Mean, cpm (tritiated thymidine count, growth rate) ([3]; A20 1 mM Methylglyoxal P6 cells, 2.5 mM methylglyoxal): 24 cpm; Mean, cpm (tritiated thymidine count, growth rate) ([3]; A20 1 mM Methylglyoxal P6 cells, 5.0 mM methylglyoxal): 9 cpm; Mean, cpm (tritiated thymidine count, growth rate) ([3]; A20 1 mM Methylglyoxal Reversed P3 cells, 0.3 mM methylglyoxal): 34,220 cpm; Mean, cpm (tritiated thymidine count, growth rate) ([3]; A20 1 mM Methylglyoxal Reversed P3 cells, 0.6 mM methylglyoxal): 33,927 cpm; Mean, cpm (tritiated thymidine count, growth rate) ([3]; A20 1 mM Methylglyoxal Reversed P3 cells, 1.2 mM methylglyoxal): 587 cpm; Mean, cpm (tritiated thymidine count, growth rate) ([3]; A20 1 mM Methylglyoxal Reversed P3 cells, 2.5 mM methylglyoxal): 7 cpm; Mean, cpm (tritiated thymidine count, growth rate) ([3]; A20 1 mM Methylglyoxal Reversed P3 cells, 5.0 mM methylglyoxal): 12 cpm; Development of resistance to methylglyoxal ([3]; A20 Methylglyoxal Reversal and A20 Methylglyoxal P6 cells, passaged in 1 mM methylglyoxal): no evidence; Mean, cpm (tritiated thymidine count, growth rate) ([3]; A20 untreated cells, 0.3 mM methylglyoxal): 36,289 cpm; Mean, cpm (tritiated thymidine count, growth rate) ([3]; A20 untreated cells, 0.6 mM methylglyoxal): 30,119 cpm; Mean, cpm (tritiated thymidine count, growth rate) ([3]; A20 untreated cells, 1.2 mM methylglyoxal): 275 cpm; Mean, cpm (tritiated thymidine count, growth rate) ([3]; A20 untreated cells, 2.5 mM methylglyoxal): 6 cpm; Mean, cpm (tritiated thymidine count, growth rate) ([3]; A20 untreated cells, 5.0 mM methylglyoxal): 8 cpm

Q: Which Deleterious effects [4] does the source give for `CCCCS(=N)(=O)CCC(N)C(=O)O` (stereo not drawn) [buthioinine sulfoximine, buthionine sulfoximine] here?
A: no deleterious effects
